Experimental data: patent US20100323979A1, “METHODS AND COMPOSITIONS FOR INHIBITING PROLIFERATION OF ANEUPLOID CELLS” (priority 2009, published 2010)

Columns and labels:
[1] = system: trisomic primary MEF cells; test: Cell proliferation assay, trisomic MEFs; type: cell-based, mouse; settings: for sensitivity in relation to size of the additional chromosome: trisomy 1 versus trisomy 16 or 19
Description: MEF cells were cultured in DMEM supplemented with 10% FBS, 2 mM glutamine, 50 U/ml penicillin, and 50 U/ml streptomycin. […] Lymphoma cells were cultured in IMDM supplemented with 10% FBS, 2 mM glutamine, 50U/ml penicillin, 50 U/ml streptomycin and […] beta-mercaptoethanol. All cells were cultured at 37° C. with 5% CO2 in a humidified environment. In all experiments, cells were counted using a Cellometer Auto T4 automated hemacytometer (Nexcelom). […] After infection with shRNA constructs, GFP+FACS sorted cells were plated at a density of 5×10^5 cells/well in 6-well plates. Cells were treated with AICAR at various concentrations or solvent control then counted at indicated time point.

[2] = system: Eμ-Myc;Arf−/− lymphoma cells; test: Cell proliferation assay, euploid lymphoma cells; type: cell-based; settings: various concentrations, 24 h, FIG. 2A
Description: (§1) All euploid (WT) and aneuploid (Ts) mouse embryonic fibroblast (MEF) lines were established as previously described (Williams, B. R. et al., 2008). MEF cells were cultured in DMEM supplemented with 10% FBS, 2 mM glutamine, 50 U/ml penicillin, and 50 U/ml streptomycin. Eμ-Myc;Arf−/− and Eμ-Myc;p53−/− lymphoma cells were established as previously described (Wendel, H. et al., 2006). Lymphoma cells were cultured in IMDM supplemented with 10% FBS, 2 mM glutamine, 50U/ml penicillin, 50 U/ml streptomycin and […] beta-mercaptoethanol. All cells were cultured at 37° C. with 5% CO2 in a humidified environment. In all experiments, cells were counted using a Cellometer Auto T4 automated hemacytometer (Nexcelom).
(§2) Exponentially growing early passage MEFs were plated at a density of 2×10^5 cells/well in 6-well plates and lymphoma cells were cultured and infected as described previously (Hemann, M. T. et al., 2003). After infection with shRNA constructs, GFP+FACS sorted cells were plated at a density of 5×10^5 cells/well in 6-well plates. Cells were treated with AICAR at various concentrations or solvent control then counted at indicated time point.

[3] = system: Eμ-Myc;p53−/− lymphoma cells; test: Cell proliferation assay, aneuploid lymphoma cells; type: cell-based
Description: as §1
AMPK-specific shRNA constructs were generated as described previously (Silva, J. M. et al., 2005). Targeting sequences were selected based on BIOPREDsi design (Huesken, D, et al., 2005).
as §2

[4] = system: autophagy (LC3, BNIP3) in trisomy 13 and 16 MEFs; test: Autophagy markers in trisomic MEFs (LC3 immunoblot, RT-qPCR, GFP-LC3 puncta); type: cell-based, mouse
Description: (§3) Western blotting was performed as previously described (Dickins, R. A. et al., 2005). Proteins were detected by using the following antibodies: anti-AMPKα (Cell signaling technology), anti-Hsp70 (Stressgen), and anti-β actin (Sigma). Secondary antibodies were horseradish peroxidase-conjugated anti-mouse or anti-rabbit IgG (GE Healthcare; 1:5,000).
For GFP-LC3 fluorescence imaging, wild-type GFP-LC3 and trisomic GFP-LC3 MEF cells were exposed to the indicated drug treatments in phenol red-free DMEM. All fluorescence images were acquired using a Nikon digital sight DS-Qil MC camera on a Nikon Eclipse Ti inverted microscope. All single plane images were acquired and processed using the NIS-Element AR 3.0 software.
Total RNA from MEFs was isolated using the RNeasy Mini Kit (Qiagen) according to the manufacturer's instructions. 1μg RNA was used to generate cDNAs using RETROscript kit (Ambion). qPCR was performed by mixing iQ SYBR Green Supermix (Bio-Rad) with the primers described in Table S2, and amplified using a LightCycler 480 II (Roche). The LightCycler software was used to evaluate gene expression level and normalized to a ribosomal reference gene, rpl19.

[5] = system: inducible Hsp70 in trisomic MEFs; test: Inducible Hsp70 levels by immunoblotting in trisomic MEFs; type: cell-based, mouse; settings: indicated doses, FIG. 4D
Description: as §3

Compound | proliferation of trisomy 1, 13, 16 and 19 cells ([1]; 100 nM, cell number after 3 days, FIG. 3A) | proliferation of trisomic/aneuploid cells versus wild-type (cell number) ([1]; single agent, cell number after 3 days, FIG. 3A/3B) | sensitivity in relation to size of the additional chromosome ([1]; FIG. 3A/3B) | sensitivity of MEFs carrying trisomies (cell count relative to non-treated control) ([1]; trisomic for chromosome 1, 13, 16 or 19, 0-0.5 mM, 72 or 144 h, FIG. 1) | sensitivity of euploid immortalized B-cells (cell count relative to control) [2] | proliferation after knock-down of AMPK ([3]; Eμ-Myc;p53−/− infected with AMPK-specific shRNA, FIG. 2B) | sensitivity of aneuploid B cells (cell count relative to control) ([3]; Eμ-Myc;p53−/−, various concentrations, 24 h, FIG. 2A) | LC3 incorporation into autophagosomes ([4]; 24 hours after treatment, LC3-GFP puncta, FIG. 4A-4C) | LC3 expression ([4]; FIG. 4A-4B) | Bnip3 expression ([4]; RT-qPCR normalized to rpl19, FIG. 4B) | Hsp70 activity (levels of inducible Hsp70) [5]
C=CCNC1=C2C[C@@H](C)C[C@H](OC)[C@H](O)[C@@H](C)/C=C(\C)[C@H](OC(N)=O)[C@@H](OC)/C=C\C=C(/C)C(=O)NC(=CC1=O)C2=O [17-AAG, 17-(Allylamino)-17-demethoxygeldanamycin] | impaired | preferentially inhibited | higher sensitivity | – | – | – | – | – | – | – | –
NC(=O)c1ncn([C@@H]2O[C@H](CO)[C@@H](O)[C@H]2O)c1N [AICAR, 5-aminoimidazole-4-carboxamide riboside] | – | – | – | sensitive | not sensitive | proliferate the same in the presence and absence of AICAR | sensitive | further induced | further induced | further induced | further increase
CCN(CC)CCCC(C)Nc1ccnc2cc(Cl)ccc12 (stereo not drawn) [chloroquine] | – | – | correlated with the size of the additional chromosome | – | – | – | – | – | – | – | –
